Results on 1 molecule are retold here after patent US20260226037A1, “MICROTUBULE TARGETING AGENTS” (ARIEL SCIENTIFIC INNOVATIONS LTD., priority 2022, published 2026).

As a reminder, the IC50 is the concentration needed to halve the response being measured.

One data set has as its system RPMI8226 cells. Kind of data set: Cell cycle distribution by flow cytometry. The class given is cell-based. As to the method: Cell cycle arrest is a shared consequence of MTAs treatment. The effects of cell cycle distribution were determined in RPMI8226 cells treated for 6 and 18 hours with a range of concentrations of the molecules. The cells were stained with propidium iodide and cell cycle distribution was measured using a cytoFLEX flow cytometer.
Background: A flow cytometer gives signals particle by particle.

Another data set concerns NCI-H69 cells. Kind of data set: XTT cytotoxicity, NCI-H69. Type of data set: cell-based. As to conditions: Homo sapiens; NCI-H69, small cell lung carcinoma, non-resistant. As to the method:
(§1) The cytotoxic activity of the novel family was evaluated against various tumor cells, including myeloma cells, acute lymphoblastic leukemia cells, acute monocytic leukemia cells, chronic myelogenous leukemia cells, pancreatic cancer cells, breast cancer cells, uterine sarcoma cells, cervix adenocarcinoma cells, ovary cancer cells, melanoma cells, osteosarcoma cells, prostate cancer cells, lung cancer cells, neuroblastoma cells and colorectal adenocarcinoma cells by XTT assay.
(In general: Formazan colour is commonly taken as a measure of viable cells.)

The subject of data set [1] is acute lymphoblastic leukemia cells. Kind of data set: XTT cytotoxicity, acute lymphoblastic leukemia cells. The class given is cell-based. As to conditions: lowest of the range. As to the method: as §1
Data set [2] can be described thus: Xenograft murine myeloma model, body weight and toxicity signs. As to conditions: intraperitoneally, during the experiment. The class given is in vivo. As to the method:
In vivo anti-cancer efficacy of the molecules was evaluated in a xenograft murine myeloma model. Male SCID mice (6-8 weeks old) were maintained in accordance with Institutional Animal Care Use Committee guidelines. Mice were housed in the Animal Research Facility of Ariel University and experiments were performed in accordance with approved protocols. During the experiment, RPMI8226 myeloma cells in exponential growth were harvested from culture, washed three times with sterile PBS, counted and resuspended in sterile PBS (1.5×10^7cells mouse/0.1 ml PBS) and subcutaneously injected on the right flank of male C.B-17/IcrHsd-Prkdc-scid, […] mice. After two weeks of cells injection, when tumors reached a size between 30-60 mm3, mice were assigned into different groups (n=3-5) and started receiving treatment. Body weights were determined twice weekly along with tumor volume {V=[length×(width)2]/2}measurements using electronical caliper. Mice were sacrificed when mean tumor volume of vehicle treated group reached 1500 mm3, or mice appeared moribund to prevent unnecessary morbidity.
The weight of the tumors was measured at the end of the experiment and expressed as mean tumor weight per group. Body weight is expressed as mean body mice weight per group.

In the next data set the test system is myeloma cell lines. The data set is described as follows: XTT cytotoxicity, 10 different myeloma cell lines. The class given is cell-based. As to conditions: range over 10 different myeloma cell lines. On the procedure: as §1
When this family of compounds were tested on different cell lines from the same type of tumor with different phenotypes there were no significant differences in cytotoxic sensitivity.

In a further data set the test system is MM1.R cells. The data set is described as follows: XTT cytotoxicity, MM1.R. The class given is cell-based. As to conditions: MM.1R; MM1.R, multiple myeloma, dexamethasone resistant; read-out: IC50. The gist of the method: (§2)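 Cytotoxicity was measured by XTT assay in a panel of human tumor cell lines spanning haematological and solid cancers.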
The next data set has as its system RPMI-LR5 cells. Kind of data set: XTT cytotoxicity, RPMI-LR5. The class given is cell-based. A digest of the protocol: as §2
For a further data set, the system named is MES-SA/DX5 cells. The data set is described as follows: XTT cytotoxicity, MES-SA/DX5. The class given is cell-based. A digest of the protocol: as §2
Data set [3] has as its system colchicine binding site on tubulin protein. The data set is described as follows: EBI competition assay, HELA cells. Type of data set: cell-based.
In data set [4] the test system is metastatic breast adenocarcinoma cells. The data set is described as follows: XTT cytotoxicity, metastatic breast adenocarcinoma cells. Type of data set: cell-based. As to conditions: highest of the range. On the procedure: as §1
The subject of another data set is RPMI 8226 cells. Kind of data set: XTT cytotoxicity, RPMI 8226. As to conditions: Homo sapiens; RPMI 8226, multiple myeloma, non-resistant; read-out: IC50. The class given is cell-based. A digest of the protocol: as §2

As to `CCCCCOC(=O)c1[nH]c2c(c1C)C(=O)CC(c1ncco1)C2` (stereo not drawn) [SMS077, pentyl 3-methyl-6-(oxazol-2-yl)-4-oxo-4,5,6,7-tetrahydro-1H-indole-2-carboxylate], the cell cycle arrest entry in the data set with RPMI8226 cells (6 hours, IC50, IC50x2.5 and IC50x5 concentrations) is given as “cell cycle arrest in G2M phase”. In addition, the subG0 phase entry with RPMI8226 cells (18 hours of treatment) is “increased in subG0 phase”. Moreover, the IC50 in the data set with NCI-H69 cells was 163 nM; in data set [1], 10 nM; in the data set on myeloma cell lines, 14 to 52 nM; with MM1.R cells, 36 nM; in the data set with RPMI-LR5 cells (RPMI-LR5, multiple myeloma, melphalan resistant, read-out: IC50) it was 19 nM; with MES-SA/DX5 cells (Homo sapiens, MES-SA/DX5, uterine sarcoma, P-gp overexpression), 65 nM. Moreover, the IC50 in data set [4] came to 426 nM; with RPMI 8226 cells it was 26 nM. The “body weight and other signs of potential toxicity” value in [2] is reported as “No significant changes in body weight or other signs of potential toxicity”. Further, the results for the “IC50 ratio between resistant and non-resistant cells” value with RPMI-LR5 cells (RPMI-LR5 / RPMI 8226) and in the data set with MES-SA/DX5 cells (MES-SA/DX5 / MES-SA) were 0.731 and 0.508, respectively. In the data set with RPMI-LR5 cells (RPMI-LR5 vs RPMI8226 (RPMI-S)), the “sensitivity of resistant subline vs parental cells” value was “no difference in their sensitivity”. Moreover, in data set [3], the “binding to the colchicine binding site” value is recorded as “bound to the colchicine binding site”.
